This is an account of results in ChEMBL document CHEMBL1909046, “DrugMatrix in vitro pharmacology data”.

Where a SMILES comes first, the peptide text is derived from it. Bridges are numbered along the chain shown (N, C = ends). [ ]: non-standard residue; d: D form. The star is where a group is joined. Threoninol(2S,3R) = C[C@@H](O)[C@H](CO)N*

Assay [1] deals with T1, Amine oxidase [flavin-containing] A (Homo sapiens, UniProt P21397).
T1 sequence (P21397 whole entry): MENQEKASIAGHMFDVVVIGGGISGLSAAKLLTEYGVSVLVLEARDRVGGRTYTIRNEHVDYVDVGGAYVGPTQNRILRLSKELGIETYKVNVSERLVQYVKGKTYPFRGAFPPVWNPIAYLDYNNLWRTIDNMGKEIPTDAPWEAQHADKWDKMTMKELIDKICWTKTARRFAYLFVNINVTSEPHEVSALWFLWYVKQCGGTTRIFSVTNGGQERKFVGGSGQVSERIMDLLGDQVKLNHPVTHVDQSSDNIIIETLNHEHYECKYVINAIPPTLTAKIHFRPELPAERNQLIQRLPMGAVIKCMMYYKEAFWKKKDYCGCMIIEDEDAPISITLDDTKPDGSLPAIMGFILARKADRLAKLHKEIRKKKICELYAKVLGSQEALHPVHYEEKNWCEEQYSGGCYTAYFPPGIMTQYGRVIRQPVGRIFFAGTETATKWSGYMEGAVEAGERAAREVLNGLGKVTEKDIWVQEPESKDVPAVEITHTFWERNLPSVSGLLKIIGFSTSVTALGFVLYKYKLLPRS
The assay can be described thus: DRUGMATRIX: Monoamine Oxidase MAO-A enzyme inhibition (substrate: Kynuramine). Details: species or system BTI-TN-5B1-4. The settings on record: Not Active = under 50% inhibition at 10 µM.

Assay [2] addresses Insulin receptor (Rattus norvegicus, UniProt P15127). It is filed as cell membranes, Wistar, Liver, Membrane.
The target in assay [3] is Aldo-keto reductase family 1 member B1 (Rattus norvegicus, UniProt P07943). Nature of the assay: biochemical. The assay is classed as tissue-based, Lens of camera-type eye.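 Also: inhibition of aldose reductase enzyme activity, measured with DL-glyceraldehyde as the substrate; in other assays of this panel Not Active means under 50% inhibition at 10 µM.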
In assay [4] the target is Carbonic anhydrase 2 (Homo sapiens, UniProt P00918). The assay can be described thus: DRUGMATRIX: Carbonic Anhydrase II enzyme inhibition (substrate: 4-Nitrophenyl acetate (4-NPA)). The assay is classed as tissue-based, Erythrocyte. The settings on record: erythrocyte; Not Active = under 50% inhibition at 10 µM.
Assay [5] concerns the target T2, Cysteinyl leukotriene receptor 1 (Homo sapiens, UniProt Q9Y271). Also: in other assays of this panel Not Active means under 50% inhibition at 10 µM.
T2 sequence (Q9Y271 whole entry): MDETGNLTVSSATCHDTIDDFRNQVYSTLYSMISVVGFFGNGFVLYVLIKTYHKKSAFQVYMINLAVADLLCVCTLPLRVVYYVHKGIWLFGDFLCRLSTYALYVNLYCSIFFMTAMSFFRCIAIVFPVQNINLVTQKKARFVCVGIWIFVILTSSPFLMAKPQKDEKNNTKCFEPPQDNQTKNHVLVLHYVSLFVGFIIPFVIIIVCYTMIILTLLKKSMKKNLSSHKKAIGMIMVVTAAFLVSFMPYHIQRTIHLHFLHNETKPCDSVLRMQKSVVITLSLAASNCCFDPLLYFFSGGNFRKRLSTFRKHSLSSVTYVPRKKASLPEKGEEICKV
The assay is classed as cell membranes, CHO-K1, Membrane. The settings on record: cho-k1.

For assay [6], the target named is T3, Neuropeptide Y receptor type 2 (Homo sapiens, UniProt P49146). Also: in other assays of this panel Not Active means under 50% inhibition at 10 µM.
T3 sequence (P49146 whole entry): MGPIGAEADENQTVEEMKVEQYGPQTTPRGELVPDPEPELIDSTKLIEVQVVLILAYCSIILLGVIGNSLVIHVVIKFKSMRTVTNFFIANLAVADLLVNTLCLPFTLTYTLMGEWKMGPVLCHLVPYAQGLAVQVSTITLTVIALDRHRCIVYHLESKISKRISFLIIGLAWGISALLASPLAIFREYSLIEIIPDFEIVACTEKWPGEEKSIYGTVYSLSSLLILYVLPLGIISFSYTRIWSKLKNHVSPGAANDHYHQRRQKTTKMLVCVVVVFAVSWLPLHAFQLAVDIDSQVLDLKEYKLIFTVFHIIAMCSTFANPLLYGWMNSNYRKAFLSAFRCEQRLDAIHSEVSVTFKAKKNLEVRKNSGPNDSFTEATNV
The assay is classed as cell membranes, Membrane. The settings on record: kan-ts.

The nature of assay [7]: DRUGMATRIX: Leukotriene, BLT (LTB4) radioligand binding (ligand: [3H]LTB4). It is filed as cell membranes, Membrane. The settings on record: u-937; Not Active = under 50% inhibition at 10 µM.
Assay [8] addresses C-C chemokine receptor type 5 (Homo sapiens, UniProt P51681). It is filed as cell membranes, HEK293, Membrane. The settings on record: hek293.

C-C chemokine receptor type 5, sequence (P51681 whole entry): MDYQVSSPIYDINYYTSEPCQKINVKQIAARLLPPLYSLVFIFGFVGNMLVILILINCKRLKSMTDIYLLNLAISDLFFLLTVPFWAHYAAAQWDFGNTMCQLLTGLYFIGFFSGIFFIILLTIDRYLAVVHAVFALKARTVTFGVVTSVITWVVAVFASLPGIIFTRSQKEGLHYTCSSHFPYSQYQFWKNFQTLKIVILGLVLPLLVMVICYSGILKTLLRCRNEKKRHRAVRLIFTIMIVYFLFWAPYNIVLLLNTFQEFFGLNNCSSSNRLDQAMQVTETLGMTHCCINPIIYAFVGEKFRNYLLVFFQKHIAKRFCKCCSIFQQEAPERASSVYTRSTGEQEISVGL
Insulin receptor, sequence (P15127 27-759 limits assumed): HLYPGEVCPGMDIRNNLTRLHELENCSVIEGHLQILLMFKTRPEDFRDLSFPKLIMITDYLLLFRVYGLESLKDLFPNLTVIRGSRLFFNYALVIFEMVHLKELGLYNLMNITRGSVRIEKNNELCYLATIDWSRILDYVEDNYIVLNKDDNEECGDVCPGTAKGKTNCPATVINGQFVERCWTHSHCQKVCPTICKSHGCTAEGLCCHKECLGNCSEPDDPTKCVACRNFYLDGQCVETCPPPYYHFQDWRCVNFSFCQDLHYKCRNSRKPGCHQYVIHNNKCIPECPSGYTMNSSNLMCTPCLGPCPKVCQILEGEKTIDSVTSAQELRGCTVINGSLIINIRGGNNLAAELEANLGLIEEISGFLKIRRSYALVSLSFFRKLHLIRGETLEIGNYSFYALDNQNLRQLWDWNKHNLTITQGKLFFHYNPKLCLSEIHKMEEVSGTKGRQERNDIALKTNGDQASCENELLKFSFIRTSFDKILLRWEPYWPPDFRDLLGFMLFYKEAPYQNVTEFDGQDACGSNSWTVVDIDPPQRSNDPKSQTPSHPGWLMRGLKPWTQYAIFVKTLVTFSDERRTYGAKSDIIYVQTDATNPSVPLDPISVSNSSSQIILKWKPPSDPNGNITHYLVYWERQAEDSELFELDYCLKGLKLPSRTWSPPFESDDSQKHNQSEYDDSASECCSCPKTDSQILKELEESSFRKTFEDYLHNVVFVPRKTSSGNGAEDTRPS
Insulin receptor, sequence (P15127 764-1383 limits assumed): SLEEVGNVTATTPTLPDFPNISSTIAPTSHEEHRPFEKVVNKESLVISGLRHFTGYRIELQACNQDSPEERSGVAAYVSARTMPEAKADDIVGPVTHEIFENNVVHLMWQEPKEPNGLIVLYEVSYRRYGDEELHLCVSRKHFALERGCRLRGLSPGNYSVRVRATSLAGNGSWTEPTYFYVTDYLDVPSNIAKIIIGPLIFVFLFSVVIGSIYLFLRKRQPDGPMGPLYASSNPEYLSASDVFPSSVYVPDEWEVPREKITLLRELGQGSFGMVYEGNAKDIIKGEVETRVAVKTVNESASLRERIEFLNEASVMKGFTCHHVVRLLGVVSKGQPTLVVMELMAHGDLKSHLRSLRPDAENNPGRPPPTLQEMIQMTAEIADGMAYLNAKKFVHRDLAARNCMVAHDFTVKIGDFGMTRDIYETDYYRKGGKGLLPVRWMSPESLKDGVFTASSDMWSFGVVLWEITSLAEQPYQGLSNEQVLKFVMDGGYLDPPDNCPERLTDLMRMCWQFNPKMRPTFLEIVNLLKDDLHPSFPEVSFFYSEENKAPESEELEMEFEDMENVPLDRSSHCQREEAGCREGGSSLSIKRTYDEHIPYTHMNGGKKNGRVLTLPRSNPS

Regarding `COc1ccccc1C(=O)N1CCC(Cc2ccccc2)CC1`, the IC50 entry in assay [1] (bti-tn-5b1-4), in assay [2], in assay [3], in assay [4], in assay [5] and in assay [6] was “Not Active” each time. Also, the IC50 entry in assay [7] and in assay [8] was “Not Active” throughout. Also, the Ki entry in assay [7] is given as “Not Active”.

Take `Cc1ccccc1C(=O)N1CCC(Cc2ccccc2)CC1`: the IC50 entry in assay [1] (bti-tn-5b1-4), in assay [2], in assay [3], in assay [4], in assay [5] and in assay [6] was “Not Active” throughout. Moreover, the IC50 entry in assay [7] and in assay [8] was “Not Active” throughout. In addition, the Ki entry in assay [7] is reported as “Not Active”.

Regarding `O=C1CC[C@H](N2C(=O)c3ccccc3C2=O)C(=O)N1`, the IC50 entry in assay [1] (bti-tn-5b1-4), in assay [2], in assay [3], in assay [4], in assay [5] and in assay [6] was “Not Active” throughout. Besides, the IC50 entry in assay [7] and in assay [8] was “Not Active” in each case. Also, the Ki entry in assay [7] is “Not Active”.

`N=C(Nc1ccccc1)Nc1ccccc1`: the IC50 entry in assay [1] (bti-tn-5b1-4), in assay [2], in assay [3], in assay [4], in assay [5] and in assay [6] was “Not Active” in each case. The IC50 result in assay [7] and in assay [8] was “Not Active” each time. Also, in assay [7], the Ki result is “Not Active”.

Take `C[C@@H](O)[C@H](CO)NC(=O)[C@@H]1CSSC[C@H](NC(=O)[C@H](N)Cc2ccccc2)C(=O)N[C@@H](Cc2ccccc2)C(=O)N[C@H](Cc2c[nH]c3ccccc23)C(=O)N[C@@H](CCCCN)C(=O)N[C@@H]([C@@H](C)O)C(=O)N1` (H-[dF]CF[dW]KTC-{Threoninol(2S,3R)}; disulfide 2-7): the IC50 entry in assay [1] (bti-tn-5b1-4), in assay [2], in assay [3], in assay [4], in assay [5] and in assay [6] was “Not Active” throughout. For the same compound, the IC50 result in assay [7] and in assay [8] was “Not Active” throughout. Moreover, the Ki entry in assay [7] is given as “Not Active”.

On to `S=C=Nc1cccc2ccccc12` [1-NAPHTHYLISOTHIOCYANATE], for which the 50% inhibitory concentration (IC50) in assay [1] (read-out: IC50) is 22.4 µM; in assay [2], “Not Active”; in assay [3] it was “Not Active”; in assay [4], “Not Active”; in assay [5] it was “Not Active”; in assay [6] it was “Not Active”. Further, the IC50 entry in assay [7] and in assay [8] was “Not Active” in each case. In addition, the Ki result in assay [7] is given as “Not Active”.

Regarding `C[C@](O)(CS(=O)(=O)c1ccc(F)cc1)C(=O)Nc1ccc(C#N)c(C(F)(F)F)c1` [(R)-BICALUTAMIDE], the IC50 entry in assay [1] (bti-tn-5b1-4), in assay [2], in assay [3], in assay [4], in assay [5] and in assay [6] was “Not Active” each time. The IC50 result in assay [7] and in assay [8] was “Not Active” each time. Further, the Ki entry in assay [7] is “Not Active”.

For the compound `CCCC(=O)Nc1ccc(OCC(O)CNC(C)C)c(C(C)=O)c1` (stereo unspecified) [ACEBUTOLOL], the IC50 entry in assay [1] (bti-tn-5b1-4), in assay [2], in assay [3], in assay [4], in assay [5] and in assay [6] was “Not Active” each time. For the same compound, the IC50 entry in assay [7] and in assay [8] was “Not Active” in each case. In assay [7], the Ki result is given as “Not Active”.

With `CC(=O)Nc1ccc(O)cc1` [ACETAMINOPHEN], the IC50 entry in assay [1] (bti-tn-5b1-4), in assay [2], in assay [3], in assay [4], in assay [5] and in assay [6] was “Not Active” in each case. The IC50 entry in assay [7] and in assay [8] was “Not Active” throughout. The Ki entry in assay [7] is “Not Active”.

Take `COc1cc2c(c3oc(=O)c4c(c13)CCC4=O)[C@@H]1C=CO[C@@H]1O2` [AFLATOXIN]: the IC50 result in assay [1] (bti-tn-5b1-4), in assay [2], in assay [3], in assay [4], in assay [5] and in assay [6] was “Not Active” in each case. Also, the IC50 result in assay [7] and in assay [8] was “Not Active” in each case. The Ki entry in assay [1] (bti-tn-5b1-4), in assay [2], in assay [3], in assay [4], in assay [5] and in assay [6] was “Not Active” in each case. In addition, the Ki result in assay [7] and in assay [8] was “Not Active” each time.

With `N=C(N)NC(=O)c1nc(Cl)c(N)nc1N` [AMILORIDE], the IC50 is 3.91 µM in assay [1] (read-out: IC50); “Not Active” in assay [2]; “Not Active” in assay [3]; “Not Active” in assay [4]; “Not Active” in assay [5]; “Not Active” in assay [6]. In addition, the IC50 result in assay [7] and in assay [8] was “Not Active” each time. In addition, the Ki result in assay [7] is recorded as “Not Active”.

Turning to `Cc1cc(=O)n(-c2ccccc2)n1C` [ANTIPYRINE], the IC50 entry in assay [1] (bti-tn-5b1-4), in assay [2], in assay [3], in assay [4], in assay [5] and in assay [6] was “Not Active” in each case. The IC50 entry in assay [7] and in assay [8] was “Not Active” each time. The Ki entry in assay [7] is “Not Active”.

For `CN1C(=O)COc2c(C(=O)NC3CN4CCC3CC4)cc(Cl)cc21` (stereo unspecified) [AZASETRON], the IC50 result in assay [1] (bti-tn-5b1-4), in assay [2], in assay [3], in assay [4], in assay [5] and in assay [6] was “Not Active” each time. Also, the IC50 result in assay [7] and in assay [8] was “Not Active” in each case. In assay [7], the Ki result is listed as “Not Active”.

Consider `C[C@H]1C[C@H]2[C@@H]3CCC4=CC(=O)C=C[C@]4(C)[C@@]3(Cl)[C@@H](O)C[C@]2(C)[C@@]1(O)C(=O)CO` [BECLOMETHASONE], for which the IC50 entry in assay [1] (bti-tn-5b1-4), in assay [2], in assay [3], in assay [4], in assay [5] and in assay [6] was “Not Active” each time. Moreover, the IC50 entry in assay [7] and in assay [8] was “Not Active” in each case. Besides, in assay [7], the Ki entry is “Not Active”.

For `CCOC(=O)[C@H](CCc1ccccc1)N[C@H]1CCc2ccccc2N(CC(=O)O)C1=O` [BENAZEPRIL], the IC50 result in assay [1] (bti-tn-5b1-4), in assay [2], in assay [3], in assay [4], in assay [5] and in assay [6] was “Not Active” in each case. Besides, the IC50 entry in assay [7] and in assay [8] was “Not Active” each time. In assay [7], the Ki entry is “Not Active”.

On to `Nc1c(CC(=O)O)cccc1C(=O)c1ccc(Br)cc1` [BROMFENAC], for which the IC50 result in assay [1] (bti-tn-5b1-4), in assay [2], in assay [3], in assay [4], in assay [5] and in assay [6] was “Not Active” throughout. Moreover, the IC50 result in assay [7] and in assay [8] was “Not Active” throughout. Further, the Ki result in assay [7] is recorded as “Not Active”.

For orientation: IC50 means the concentration that inhibits the measured activity by half.
